One compound from patent publication US7115645B2, “1,2 diarylbenzimidazoles and their pharmaceutical use” (Schering Aktiengesellschaft, priority 2000, dated 2006) can be followed below.

This assay concerns primary rat microglia. The assay can be described thus: Inhibition of microglia activation (Aβ-peptide-activated primary rat microglia, MTS reduction). Conditions: 168 h, test of Example 307, metabolic activity via MTS reduction on cultivation day 7, relative to DMSO control. Type of assay: cell-based. (Tetrazolium dyes change colour on reduction, which living cells bring about.)

The term IC50 denotes the concentration at which inhibition is half-maximal. A lower IC50 goes with greater potency in that assay.

Compound `Cc1ccc(-n2c(-c3ccccc3)nc3ccc(OCCCCCC(=O)OC(C)C)cc32)cc1` [Example 49, 6-[[1-(4-Methylphenyl)-2-phenyl-1H-benzimidazol-6-yl]oxy]hexanoic acid isopropyl ester] showed an IC50 of 750 nM.
